From patent US20250009914A1, “METHOD FOR SYNTHESIZING HYALURONIC ACID NANOPARTICLES, AND HYALURONIC ACID NANOPARTICLES PREPARED BY METHOD” (Kyungpook National University Industry-Academic Cooperation …, priority 2019, published 2025) come the findings set out here.

For series [1], the system named is HDF-neo, Human primary dermal fibroblast-neonatal. The series is described as follows: Fibroblast proliferation, WST-8 assay (Ez-cytox). The note with it: 3 day, serum free condition, FIG. 26. It is filed as cell-based. Here is the method: Next, the fibroblast proliferation effect was evaluated according to a conventional known method.
Evaluation method: WST-8 assay (Ez-cytox) and Procollagen ELISA (Takara #MK101)

Series [2] relates to B16F10 mouse melanoma cell line. In words: Melanin contents assay. In kind it is cell-based. The note with it: B16F10, 48 hours; substance left 24 hours at 50° C. compared with −20° C., FIG. 23. The method, then:
Whitening efficacy evaluation was measured by melanin contents assay and cellular tyrosinase activity assay after treating each experimental substance to a B16F10 mouse melanoma cell line and incubating the each experimental substance for 48 hours. As a control, ascorbic acid, ascorbic acid-2-glucoside (AA2G) and HAI (Oligo-HA) used in Example 2 were used. The substances used in the experiment were all left for 24 hours at −20° C. or 50° C. and then used in the experiment.

The nature of series [3]: Thermal stability evaluation by HPLC. In kind it is physicochemical. The note with it: aqueous solution 100 uM, 50° C. for 48 hours.
A further series has as its target T1, cellular tyrosinase (Mus musculus, UniProt P11344).
T1 construct: Cell line: B16F10 mouse melanoma (Passage 10), 6 well plate; endogenous in cells; host or cells: B16F10 mouse melanoma cells
T1 sequence (P11344 19-533): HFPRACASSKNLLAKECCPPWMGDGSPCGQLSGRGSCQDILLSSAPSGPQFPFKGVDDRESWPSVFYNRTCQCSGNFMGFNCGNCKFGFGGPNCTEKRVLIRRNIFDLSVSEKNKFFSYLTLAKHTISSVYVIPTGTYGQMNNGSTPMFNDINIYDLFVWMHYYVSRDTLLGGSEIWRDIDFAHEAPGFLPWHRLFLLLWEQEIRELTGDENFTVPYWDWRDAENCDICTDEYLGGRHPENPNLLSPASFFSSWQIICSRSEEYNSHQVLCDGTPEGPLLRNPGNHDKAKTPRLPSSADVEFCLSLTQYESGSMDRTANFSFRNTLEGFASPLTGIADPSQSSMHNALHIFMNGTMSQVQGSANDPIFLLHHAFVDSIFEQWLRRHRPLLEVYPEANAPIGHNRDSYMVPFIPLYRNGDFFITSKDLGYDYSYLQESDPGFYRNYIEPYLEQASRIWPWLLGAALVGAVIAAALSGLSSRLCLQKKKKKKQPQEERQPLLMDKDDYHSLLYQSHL
The series is described as follows: Cellular tyrosinase activity assay. The note with it: B16F10, 48 hours; substance left 24 hours at 50° C. compared with −20° C., FIG. 23. It is filed as cell-based.

Protocol for cellular tyrosinase: Cell line: B16F10 mouse melanoma (Passage 10), 6 well plate, 4×10^5 cells/well
Evaluation method: Cellular tyrosinase activity assay
Experimental substance treatment time: 48 hours
Experimental substance treatment concentration: See FIG. 25

For `O=C1O[C@H]([C@@H](O)CO)C(O)=C1O[C@H]1O[C@H](CO)[C@@H](O)[C@H](O)[C@H]1O` [AA2G, ascorbic acid-2-glucoside], in series [1], the “fibroblast proliferation promoting efficacy” value is reported as “almost not shown”.
The same measure, in the same setting: the result for `CCCCCCCCCCCCCCCC(=O)OCC(O)C1OC(=O)C(OP(=O)(O)O)=C1O` (stereo not drawn) [APPS] reads “almost not shown”.
Turning to `O=C1O[C@H]([C@@H](O)CO)C(O)=C1O` [ascorbic acid], in series [1], the “fibroblast proliferation promoting efficacy” value is “almost not shown”. Further, the “melanin production (whitening efficacy)” value in series [2] was “whitening efficacy disappeared”. In addition, the oxidation over time result in series [3] was “not oxidized over time”. Moreover, on cellular tyrosinase, the “tyrosinase activity (whitening efficacy)” value is given as “whitening efficacy disappeared”.
